Assay results as given in patent US5624831A, “Immobilized acetylcholinesterase stabilized by a film of gelatin or albumin containing trehalose” (priority 1994, dated 1997).

Key:
[1] = tested on: Horseradish peroxidase; test: Stability of immobilized peroxidase under gelatin or albumin film containing trehalose, 7 days dry storage (Table II); type: physicochemical; conditions: included in the gelifying film
Experimental: Horseradish peroxidase (0.2 mg/ml) was used to sensitize the wells of microtitration plates, following the method described in example I. After sensitization during one night at 4° C., the wells were covered either with a warm solution (47° C. for the solubilisation, 37° C. for the pouring into the wells) of a 5% gelatin solution or a 5% albumin solution, both containing trehalose in decreasing concentrations starting from a concentration of 8 mg/ml. Triton X100 at a concentration of 0.04% was added to the albumin solution, as a wetting agent. The wells were immediately emptied without rinsing and were thereafter placed at 4° C. and 37° C. duiring 7 days in a dry incubator. The remaining peroxidase activity was measured by addition to the wells of 100 μl of a solution of tetramethylbenzidine and hydrogen peroxide in a citrate-phosphate buffer at pH 5.5. The blue coloration obtained changes to yellow with sulfuric acid (100 μl, 0.5 N), added to stop the enzymatic reaction. The results are given in adsorbances read at 450 nm (table II)

[2] = tested on: Acetylcholinesterase, extracted from torpedo fish; test: Stability of acetylcholinesterase-sensitized wells: residual enzymatic activity after 7 days dry storage (Table I); type: physicochemical
Experimental: After a night of incubation at 4° C., the wells were rinsed and thereafter subjected to the following analysis:
1. Control (nothing added)
2. Rinsing of the wells with buffered water (0.05 M phosphate pH 7,00) containing 15% trehalose.
3. Covering of the wells with buffered water (0.05 M phosphate pH 7,00) containing 5% gelatin (240 bloom), followed by the elimination of the gelatin without rinsing
4. Covering of the wells with buffered water (0.05 M phosphate pH 7,00) containing 5% gelatin (240 bloom) and 15% trehalose, followed by an elimination of the gelatin witout rinsing.
The gelatin was solubilized by heating at 47° C., then cooling down to 37° C. before dispensing in the wells. The wells of the microtitration plates handled in this way were placed at 4° C., 37° C. and 50° C. during 7 days in a dry incubator, then analyzed for the remaining enzymatic activity, according to Ellman's method. Results are given in adsorbances read at 412 nm (table I).

[3] = molecular target: T1, acetylcholinesterase (Torpedo marmorata, UniProt P07692); test: Analysis of pesticides in salad extracts by inhibition of acetylcholinesterase (Table IX); type: biochemical; conditions: read-out: % relative activity
T1 construct: from tissue
Text: The analysis of the presence of these inhibitors was done following the protocol described in example 1.

[4] = molecular target: T2, torpedo fish AchE (Torpedo marmorata, UniProt P07692); test: Analysis of 5 pesticides dissolved in water by inhibition of immobilized AchE (Table VIII); type: biochemical; conditions: for sensitivity of the test (in words): in water, gelatin-trehalose protected; for times less sensitivity of detection: compared with Naled, Carbofuran, Paraoxon
T2 construct: from tissue

[5] = tested on: acetylcholinesterase; test: Analysis of a drug in spiked serum by inhibition of acetylcholinesterase; type: biochemical; conditions: serum of a healthy subject
Experimental: (§1) The serum of a healthy subject was spiked with increasing concentrations of pyridostygmin and thereafter analysed for the enzymatic activity of acetylcholinesterase, following the protocol already outlined in former examples. One sees in graph 1 that the detection Of the inhibitor of AchE goes down to 1 to 2 μg/ml of this drug in serum.
as §1, with “neostygmin” for “pyridostygmin”, “2” for “1”, “of this” for “Of the”, “50 ng/ml” for “1 to 2 μg/ml”
as §1, with “A” for “The”, “eserin” for “pyridostygmin”, “3” for “1”, “of this” for “Of the”, “100 ng/ml” for “1 to 2 μg/ml”

T2 sequence (P07692 25-590): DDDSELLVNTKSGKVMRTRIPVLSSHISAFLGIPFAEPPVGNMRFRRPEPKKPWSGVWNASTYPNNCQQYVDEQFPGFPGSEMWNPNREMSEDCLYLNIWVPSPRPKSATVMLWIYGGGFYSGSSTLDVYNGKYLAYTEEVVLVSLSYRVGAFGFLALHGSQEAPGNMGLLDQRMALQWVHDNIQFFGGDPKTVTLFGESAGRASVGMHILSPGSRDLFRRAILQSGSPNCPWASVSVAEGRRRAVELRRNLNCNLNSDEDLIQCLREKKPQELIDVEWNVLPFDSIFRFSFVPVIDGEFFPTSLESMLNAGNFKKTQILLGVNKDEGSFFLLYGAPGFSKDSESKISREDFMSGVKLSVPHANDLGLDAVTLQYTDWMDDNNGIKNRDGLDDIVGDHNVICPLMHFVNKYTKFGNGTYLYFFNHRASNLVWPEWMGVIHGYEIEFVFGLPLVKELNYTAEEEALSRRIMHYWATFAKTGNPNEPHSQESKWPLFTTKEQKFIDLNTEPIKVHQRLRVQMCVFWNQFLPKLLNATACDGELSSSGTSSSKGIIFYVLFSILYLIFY
T1 sequence (P07692 25-590): as above

| SMILES | % of Residual activity ([4]; 01 μg/litre in water) | % of Residual activity ([4]; 10 μg/litre in water) | % of Residual activity ([4]; 50 μg/litre in water) | % of Residual activity ([4]; 100 μg/litre in water) | % of Residual activity ([4]; 1000 μg/litre in water) | sensitivity of the test (in words) [4] | further results |
| --- | --- | --- | --- | --- | --- | --- | --- |
| OC[C@H]1O[C@H](O[C@H]2O[C@H](CO)[C@@H](O)[C@H](O)[C@H]2O)[C@H](O)[C@@H](O)[C@@H]1O [Trehalose, α-D glucopyranosyl-α-D-glucopyranoside] | – | – | – | – | – | – | concentration of trehalose sufficient and necessary to stabilize the dry enzyme [1]: Two; Residual enzymatic activity after storage of AchE-sensitized wells during 7 days ([2]; 4° C.): 1.88 adsorbances read at 412 nm; Residual enzymatic activity after storage of AchE-sensitized wells during 7 days ([2]; 37° C.): 0.97 adsorbances read at 412 nm; Residual enzymatic activity after storage of AchE-sensitized wells during 7 days ([2]; 50° C.): 0.12 adsorbances read at 412 nm |
| COP(=O)(OC)OC(Br)C(Cl)(Cl)Br (centres unmarked) [Naled] | 73% | 11% | 0% | 0% | 0% | most sensitive | activity at 0.001 µg/mL [3]: 90%; activity at 0.01 µg/mL [3]: 63%; activity at 0.05 µg/mL [3]: 20%; activity at 0.1 µg/mL [3]: 9%; activity at 1 µg/mL [3]: 3% |
| CNC(=O)Oc1cccc2c1OC(C)(C)C2 [Carbofuran] | 73% | 35% | 20% | 18% | 14% | most sensitive | – |
| CNC(=O)Oc1ccc2c(c1)[C@]1(C)CCN(C)[C@@H]1N2C [eserin] | – | – | – | – | – | – | detection of this inhibitor of AchE goes down to [5]: 100 ng/mL |
| CN(C)C(=O)Oc1cccc([N+](C)(C)C)c1 [neostygmin] | – | – | – | – | – | – | detection of this inhibitor of AchE goes down to [5]: 50 ng/mL |
| CNC(=O)Oc1cccc2ccccc12 [Carbaryl] | – | 80% | 61% | 44% | 18% | – | activity at 0.01 µg/mL [3]: 80%; activity at 0.05 µg/mL [3]: 61%; activity at 0.1 µg/mL [3]: 51%; activity at 0.5 µg/mL [3]: 26%; activity at 1 µg/mL [3]: 28%; times less sensitivity of detection [4]: 100 times |
| COP(=O)(OC)OC=C(Cl)Cl [Dichlorvos] | – | 80% | 60% | 49% | 3% | – | times less sensitivity of detection [4]: 100 times |
| CCOP(=O)(OCC)Oc1ccc([N+](=O)[O-])cc1 [Paraoxon] | 80% | 40% | 0% | 0% | 0% | followed closely | – |
